# Experimental data taken from patent US20110059970A1, “4-PHENYL-1,3-THIAZOLES AND 4-PHENYL-1,3-OXAZOLES DERIVATIVES AS CANNABINOID RECEPTOR LIGANDS” (IPSEN PHARMA S.A.S., priority 2007, published 2011).
# Structures can show the parent of a compound that is named as a salt.
# Test system: not given
# Experiment: not given
# Conditions: not given
row,SMILES,melting point [°C]
1,"COc1c(C(C)(C)C)cc(-c2csc(C3(N(C)C)CCOCC3)n2)cc1C(C)(C)C (as salt: hydrochloride) [Example 2, {4-[4-(3,5-di-tert-butyl-4-methoxyphenyl)-1,3-thiazol-2-yl]tetrahydro-2H-pyran-4-yl}dimethylamine hydrochloride]",215 to 216.7
2,"COc1c(Cl)cc(-c2csc(C3(N(C)C)CCOCC3)n2)cc1C(C)(C)C (as salt: hydrochloride) [Example 13, {4-[4-(3-tert-butyl-5-chloro-4-methoxyphenyl)-1,3-thiazol-2-yl]tetrahydro-2H-pyran-4-yl}dimethylamine hydrochloride]",219.7 to 222.2
3,"COc1ccc(-c2csc(C3(N(C)C)CCOCC3)n2)cc1C(C)(C)C (as salt: hydrochloride) [Example 14, {4-[4-(3-tert-butyl-4-methoxyphenyl)-1,3-thiazol-2-yl]tetrahydro-2H-pyran-4-yl}dimethylamine hydrochloride]",232.7 to 233.5

# Second part, the molecule after the results:
row,melting point [°C],SMILES
1,237.5 to 239,COc1c(C)cc(-c2csc(C3(N(C)C)CCOCC3)n2)cc1C (as salt: hydrochloride)
2,127 to 130,CN(C)C1(c2nc(-c3ccc(Oc4cccc(Cl)c4C#N)cc3)cs2)CCOCC1 (as salt: hydrochloride)
3,120 to 121,COc1ccc(Oc2ccc(-c3csc(C4(N(C)C)CCOCC4)n3)cc2)cc1 (as salt: hydrochloride)
4,199.4 to 200.7,COc1c(-c2csc(C3(N(C)C)CCOCC3)n2)cc(C(C)(C)C)cc1C(C)(C)C (as salt: hydrochloride)
5,205 to 207,"CN(C)C1(c2nc(-c3ccc(C(C)(C)C)cc3)cs2)CCOCC1 (as salt: hydrochloride) [Example 8, {4-[4-(4-tert-butylphenyl)-1,3-thiazol-2-yl]tetrahydro-2H-pyran-4-yl}dimethylamine hydrochloride]"
6,232.2 to 233,"CN(C)C1(c2nc(-c3cc(C(F)(F)F)cc(C(F)(F)F)c3)cs2)CCOCC1 (as salt: hydrochloride) [Example 9, (4-{4-[3,5-bis(trifluoromethyl)phenyl]-1,3-thiazol-2-yl}tetrahydro-2H-pyran-4-yl)dimethylamine hydrochloride]"
7,213 to 223.2,"CN(C)C1(c2nc(-c3ccc(Oc4ccccc4)cc3)cs2)CCOCC1 (as salt: hydrochloride) [Example 16, N,N-dimethyl-4-[4-(4-phenoxyphenyl)-1,3-thiazol-2-yl]tetrahydro-2H-pyran-4-amine hydrochloride]"

# Molecular target: T1, human CB2 receptors (Homo sapiens, UniProt P34972)
# T1 construct: expressed in transfected cells; membranes prepared from them
# T1 sequence (P34972 whole entry): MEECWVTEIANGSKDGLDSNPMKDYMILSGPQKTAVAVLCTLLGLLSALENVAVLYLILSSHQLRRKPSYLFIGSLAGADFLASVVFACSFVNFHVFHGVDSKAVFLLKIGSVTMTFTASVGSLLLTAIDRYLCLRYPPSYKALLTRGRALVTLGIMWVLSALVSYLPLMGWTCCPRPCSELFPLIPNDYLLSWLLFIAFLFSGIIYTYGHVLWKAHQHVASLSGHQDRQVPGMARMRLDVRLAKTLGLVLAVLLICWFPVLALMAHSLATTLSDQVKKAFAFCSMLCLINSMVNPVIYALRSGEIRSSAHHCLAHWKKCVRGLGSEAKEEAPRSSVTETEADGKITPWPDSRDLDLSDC
# Experiment: Affinity for human CB2 receptors: inhibition of [3H]-CP55940 binding to membranes of transfected CHO-K1 cells
# Conditions: not given
# Description: Study of the Affinity of the Compounds for Human Cannabinoid CB2 Receptors
# The affinity of the compounds of the invention for human CB2 receptors was determined by measuring inhibition of [^3H]-CP55940 binding to membrane preparations produced from transfected CHO-K1 cells.
# CHO-K1 cells stably expressing human CB2 receptors were cultured in RPMI 1640 medium supplemented with 10% foetal calf serum, 2 mM glutamine, 100 U/ml penicillin, 0.1 mg/ml streptomycin and 0.5 mg/ml G418. The cells were collected using 0.5 mM EDTA and centrifuged at 500 g for 5 min at 4° C. The cell pellet was resuspended in phosphate buffered saline (PBS) and centrifuged at 500 g for 5 min at 4° C. The pellet was resuspended in 50 mM tris buffer pH 7.4 and centrifuged at 500 g for 5 min at 4° C. The cells were lysed by sonication and centrifuged at 39,000 g for 10 min at 4° C. The pellet was resuspended in 50 mM tris buffer pH 7.4 and centrifuged at 50,000 g for 10 min at 4° C. The membranes obtained in this final pellet were stored at −80° C.
# Competitive inhibition of the binding of [^3H]-CP55940 to CB2 receptors was determined in duplicate in 96-well polypropylene plates. Cell membranes (10 μg of protein/well) were incubated with [^3H]-CP55940 (1 nM) for 60 min at 25° C. in 50 mM Tris-HCl buffer, pH 7.4, containing 0.1% bovine serum albumin (BSA), 5 mM MgCl2, and 50 μg/ml of bacitracin.
# Bound [^3H]-CP55940 was separated from free [^3H]-CP55940 by filtration through GF/C fibre glass filter plates (Unifilter, Packard) pre-impregnated with 0.1% polyethylenimine (P.E.I.), using a Filtermate 196 (Packard). The filters were washed with 50 mM Tris-HCl buffer, pH 7.4 at 0-4° C. and the radioactivity present was determined using a counter (Packard Top Count).
# Specific binding was obtained by subtracting non-specific binding (determined in the presence of 0.1 μM WIN55212-2) from total binding. The data were analysed by computer-assisted nonlinear regression (MDL). For each test, the IC50 value was converted to a Ki value (inhibition constant) using the Cheng-Prusoff equation.
# where [L] is the concentration of the radioligand used in the assay and Kd is the dissociation constant of the radioligand at equilibrium.
row,SMILES,Ki [µM]
1,"COc1c(C(C)(C)C)cc(-c2csc(C3(N(C)C)CCOCC3)n2)cc1C(C)(C)C [Example 2, {4-[4-(3,5-di-tert-butyl-4-methoxyphenyl)-1,3-thiazol-2-yl]tetrahydro-2H-pyran-4-yl}dimethylamine hydrochloride]",≤ 0.1
2,"CN(C)C1(c2nc(-c3cc(C(C)(C)C)c(O)c(C(C)(C)C)c3)cs2)CCSCC1 [Example 6, 2,6-di-tert-butyl-4-{2-[4-(dimethylamino)tetrahydro-2H-thiopyran-4-yl]-1,3-thiazol-4-yl}phenol hydrochloride]",≤ 0.1
3,"CN(C)C1(c2nc(-c3cc(C(C)(C)C)c(O)c(C(C)(C)C)c3)cs2)CCOC1 (stereo not shown) [Example 7, 2,6-di-tert-butyl-4-{2-[3-(dimethylamino)tetrahydrofuran-3-yl]-1,3-thiazol-4-yl}phenol hydrochloride]",0.1 to 0.5
4,"COc1c(Cl)cc(-c2csc(C3(N(C)C)CCOCC3)n2)cc1C(C)(C)C [Example 13, {4-[4-(3-tert-butyl-5-chloro-4-methoxyphenyl)-1,3-thiazol-2-yl]tetrahydro-2H-pyran-4-yl}dimethylamine hydrochloride]",0.1 to 0.5
5,"COc1ccc(-c2csc(C3(N(C)C)CCOCC3)n2)cc1C(C)(C)C [Example 14, {4-[4-(3-tert-butyl-4-methoxyphenyl)-1,3-thiazol-2-yl]tetrahydro-2H-pyran-4-yl}dimethylamine hydrochloride]",0.5 to 1
6,"CN(C)C1(c2nc(-c3cc(C(C)(C)C)c(O)c(C(C)(C)C)c3)co2)CCOCC1 [Example 15, 2,6-di-tert-butyl-4-{2-[4-(dimethylamino)tetrahydro-2H-pyran-4-yl]-1,3-oxazol-4-yl}phenol hydrochloride]",≤ 0.1
7,"CC(C)(C)c1cc(-c2csc(C3(N4CCCCC4)CCOCC3)n2)cc(C(C)(C)C)c1O [Example 20, 2,6-di-tert-butyl-4-[2-(4-piperidin-1-yltetrahydro-2H-pyran-4-yl)-1,3-thiazol-4-yl]phenol hydrochloride]",≤ 0.1
8,"CC(C)(C)c1cc(-c2csc(C3(N4CCOCC4)CCOCC3)n2)cc(C(C)(C)C)c1O [Example 21, 2,6-di-tert-butyl-4-[2-(4-morpholin-4-yltetrahydro-2H-pyran-4-yl)-1,3-thiazol-4-yl]phenol]",0.1 to 0.5
9,"COc1c(C(C)(C)C)cc(-c2nc(C3(N(C)C)CCOCC3)sc2C)cc1C(C)(C)C [Example 25, {4-[4-(3,5-di-tert-butyl-4-methoxyphenyl)-5-methyl-1,3-thiazol-2-yl]tetrahydro-2H-pyran-4-yl}dimethylamine hydrochloride]",0.1 to 0.5

# Same assay, conditions: [3H]-CP55940 (1 nM) competition, CHO-K1 membranes; IC50 converted to Ki by Cheng-Prusoff; read-out: affinity for the CB2 receptor
row,SMILES,Ki [µM]
1,"CN(C)C1(c2nc(-c3cc(C(C)(C)C)c(O)c(C(C)(C)C)c3)cs2)CCOCC1 [Example 4, 2,6-di-tert-butyl-4-{2-[4-(dimethylamino)tetrahydro-2H-pyran-4-yl]-1,3-thiazol-4-yl}phenol hydrochloride]",≤ 0.1
2,"CN(C)C1(c2nc(-c3ccc(C(C)(C)C)cc3)cs2)CCOCC1 [Example 8, {4-[4-(4-tert-butylphenyl)-1,3-thiazol-2-yl]tetrahydro-2H-pyran-4-yl}dimethylamine hydrochloride]",0.1 to 0.5
3,"CN(C)C1(c2nc(-c3cc(C(C)(C)C)cc(C(C)(C)C)c3)cs2)CCOCC1 [Example 11, {4-[4-(3,5-di-tert-butylphenyl)-1,3-thiazol-2-yl]tetrahydro-2H-pyran-4-yl}dimethylamine hydrochloride]",0.1 to 0.5
4,"CN(C)C1(c2nc(-c3ccc(Oc4ccccc4)cc3)cs2)CCOCC1 [Example 16, N,N-dimethyl-4-[4-(4-phenoxyphenyl)-1,3-thiazol-2-yl]tetrahydro-2H-pyran-4-amine hydrochloride]",0.1 to 0.5
5,"CCNC1(c2nc(-c3cc(C(C)(C)C)c(O)c(C(C)(C)C)c3)cs2)CCOCC1 [Example 17, 2,6-di-tert-butyl-4-{2-[4-(ethylamino)tetrahydro-2H-pyran-4-yl]-1,3-thiazol-4-yl}phenol]",0.1 to 0.5
6,"CCN(CC)C1(c2nc(-c3cc(C(C)(C)C)c(O)c(C(C)(C)C)c3)cs2)CCOCC1 [Example 18, 2,6-di-tert-butyl-4-{2-[4-(diethylamino)tetrahydro-2H-pyran-4-yl]-1,3-thiazol-4-yl}phenol hydrochloride]",≤ 0.1
7,"CNC1(c2nc(-c3cc(C(C)(C)C)c(O)c(C(C)(C)C)c3)cs2)CCOCC1 [Example 19, 2,6-di-tert-butyl-4-{2-[4-(methylamino)tetrahydro-2H-pyran-4-yl]-1,3-thiazol-4-yl}phenol hydrochloride]",0.1 to 0.5
8,"CN1CCC(c2nc(-c3cc(C(C)(C)C)c(O)c(C(C)(C)C)c3)cs2)(N(C)C)CC1 [Example 23, 2,6-di-tert-butyl-4-{2-[4-(dimethylamino)-1-methylpiperidin-4-yl]-1,3-thiazol-4-yl}phenol hydrochloride]",0.1 to 0.5
9,"CCN(CC)c1ccc(-c2csc(C3(N(C)C)CCOCC3)n2)cc1 [Example 28, (4-{4-[4-(diethylamino)phenyl]-1,3-thiazol-2-yl}tetrahydro-2H-pyran-4-yl)dimethylamine hydrochloride]",0.5 to 1
10,"CN(C)C1(c2nc(-c3ccc(Cc4ccccc4)cc3)cs2)CCOCC1 [Example 29, {4-[4-(4-benzylphenyl)-1,3-thiazol-2-yl]tetrahydro-2H-pyran-4-yl}dimethylamine hydrochloride]",0.5 to 1
11,"CN(C)C1(c2nc(-c3ccc(Oc4ccc([N+](=O)[O-])cc4)cc3)cs2)CCOCC1 [Example 32, N,N-dimethyl-4-{4-[4-(4-nitrophenoxy)phenyl]-1,3-thiazol-2-yl}tetrahydro-2H-pyran-4-amine hydrochloride]",0.1 to 0.5
12,"CN(C)C1(c2nc(-c3ccc(Sc4ccccc4)cc3)cs2)CCOCC1 [Example 33, N,N-dimethyl-4-{4-[4-(phenylthio)phenyl]-1,3-thiazol-2-yl}tetrahydro-2H-pyran-4-amine hydrochloride]",0.5 to 1
